Measurements reported in patent US5656660A, “Compositions and methods for treating mast-cell mediated conditions” (Arris Pharmaceutical Corporation, priority 1995, dated 1997).

What was measured:
[1] = target: tryptase; experiment: In vitro tryptase inhibition assay; format: biochemical, human; settings: tosyl-Gly-Pro-Lys-p-nitroanilide 0.5 mM; 1 h preincubation at room temperature; pH 8.2
Protocol: The compounds to be assayed (approximately 1 mg) were dissolved in 200 μL dimethylsulfoxide (DMSO) and diluted 1:10 into buffer containing 50 millimolar (mM) Tris-HCl (pH 8.2), 100 mM sodium chloride, and 0.05% polyoxyethylenesorbitan monolaurate (Tween-20°, available from Sigma, St. Louis, Mo.). Seven additional threefold dilutions were made from the initial dilution into the same buffer supplemented with 10% DMSO. Aliquots (50 microliters, μL) from each of the eight dilutions in the series were transferred to individual wells in a 96-well U-bottom microtiter plate. […] The tryptase solution was prepared by placing 60 μg/mL of tryptase into solution with 10 mM MES (2-[N-Morpholino]ethane sulfonic acid) containing 2 mM CaCl2, 20% glycerol and 50 μg/mL heparin. The enzyme reaction was initiated with the addition of the synthetic tripeptide substrate, tosyl-Gly-Pro-Lys-p-nitroanilide (available from Sigma, 25 μL; 0.5 mM final concentration). […] Initial velocity measurements calculated from the progress curves by a kinetic analysis program (BatchKi; Petr Kuzmic, University of Wisconsin, Madison, Wis.) were used to determine apparent inhibition constants for each inhibitor.

[2] = system: antigen-challenged sheep; experiment: Allergic sheep model of asthma, aerosol: Specific Lung Resistance (SRL) after antigen challenge; format: in vivo; settings: aerosol 0.5 h before, 4 h after and 24 h after challenge, n=6; for early response to antigen challenge (SRL): peak immediately post-challenge; for late response to antigen challenge (SRL): peak within 6-8 h
Protocol: The initial asthmatic response can be evaluated in guinea pigs, and dogs, and particularly, with a basenji-greyhound cross strain which develops nonspecific airway hyperresponsiveness to numerous nonallergenic substances, such as methacholine and citric acid. […] In dual responding animals, the initial asthmatic response (IAR) is followed by a late asthmatic response (LAR) at 6-8 hours post-exposure.
The allergic sheep model (see below) was used to evaluate the potential antiasthmatic effects of the compounds of the present invention.
(§1) The allergic sheep model of asthma was employed for the in vivo evaluation of the compounds of the invention as antiasthmatics. These methods have been published previously (see Abraham et al. (1983) Am. Rev. Respir. Dis. 128:839-844; Allegra et al. (1983) J. Appl. Physiol. 55:726-730; Russi et al. (1985) J. Appl. Physiol. 59:1416-1422; Soler et al. ((1989) J. Appl. Physiol. 67:406-413. Each sheep serves as its own control. Body weights for these animals ranged from 20-50 kilograms.
(§2) In these studies, […] of Compound 2 of the invention was dissolved in buffered saline and the total solution delivered as an aerosol 0.5 hours before, 4 hours after, and 24 hours after antigen challenge (total dose=27; n=6). […] The peak early response was taken as the average of the maximum values occurring immediately post-challenge. Peak late responses were calculated by averaging the maximum response values obtained for each animal within the 6-8 hour time period. This approach is conservative and eliminates the possible reduction in the late response due simply to averaging.

[3] = system: antigen-challenged sheep; experiment: Allergic sheep model of asthma, oral (intergastric tube): Specific Lung Resistance (SRL); format: in vivo
From the text: as §1
Three doses of Compound 2 (40 mg in 60 mL water) were administered to sheep through an intergastric tube 1 hr before challenge, 4 hours post-challenge, and 24 hours post-challenge.

[4] = system: antigen-challenged sheep; experiment: Allergic sheep model of asthma: airway hyperresponsiveness (PC400, carbachol); format: in vivo; settings: aerosol; for PC400, concentration of carbachol that causes a 400% increase in SRL / onset of hyperresponsiveness: 24 h after antigen challenge
From the text: as §1, §2
Twenty-four hours after antigen challenge in both the control and drug trial, the sheep developed airway hyperresponsiveness. Airway hyperresponsiveness is expressed as PC400, the concentration of carbachol that causes a 400% increase in SRL; therefore, a decrease in PC400 indicates hyperresponsiveness. […] The number of breath units fell to 10±4 for those animals in the control group.

Ki [1] [nM] | Compound | other results
682 | N=C(N)Nc1ccc(CNC(=O)CC(=O)NCc2ccc(CNC(=O)CC(=O)NCc3ccc(NC(=N)N)cc3)cc2)cc1 [Example 36, N,N'-Bis(N-(4-Guanidylbenzylamine)-malonamido)-p-xylylene diamide] | 
874 | CN(Cc1ccc(CN)cc1)C(=O)CNC(=O)OCc1ccc(COC(=O)NCC(=O)N(C)Cc2ccc(CN)cc2)cc1 [Example 32] | 
10 | N=C(N)Nc1ccc(CNC(=O)CNC(=O)NCc2ccc(CNC(=O)NCC(=O)NCc3ccc(NC(=N)N)cc3)cc2)cc1 [Example 46, 4-(Guanidinobenzylamido)glycine-1,4-xylylene diurea] | 
364 | C[C@@H](NC(=O)OCc1ccc(COC(=O)N[C@H](C)C(=O)NCc2ccc(NC(=N)N)cc2)cc1)C(=O)NCc1ccc(NC(=N)N)cc1 [Example 6] | 
783 | NCc1ccc(NC(=O)CNC(=O)OCc2ccc(COC(=O)NCC(=O)Nc3ccc(CN)cc3)cc2)cc1 [Example 42, Bis((4-aminomethylanilido)glycine)-1,4-benzenedimethanol dicarbamate] | 
20 | N=C(N)Nc1ccc(CNC(=O)CNC(=O)OCc2ccc(COC(=O)NCC(=O)NCc3ccc(NC(=N)N)cc3)cc2)cc1 [Example 2, N,N'-(4-Guanidylbenzylaminecarbonylmethylene)-1,4-benzenedimethanol dicarbamate] | early response to antigen challenge (SRL) [2]: statistically significant reduction in the early response; late response to antigen challenge (SRL) [2]: attenuated the late response; early phase SRL ([3]; 40 mg in 60 mL water by intergastric tube 1 h before, 4 h and 24 h post-challenge, untreated about 350): about 270; late phase SRL ([3]; 40 mg in 60 mL water by intergastric tube 1 h before, 4 h and 24 h post-challenge, untreated over 150): about 70; anti-asthmatic properties when delivered orally ([3]; 40 mg in 60 mL water, intergastric tube, three doses): significant anti-asthmatic properties; PC400, concentration of carbachol that causes a 400% increase in SRL [4]: 24±6 breath units; onset of hyperresponsiveness [4]: block the onset of hyperresponsiveness; improvement in airway function in antigen challenged sheep [4]: statistically significant improvement in airway function
19 | NCc1ccc(CNC(=O)CCC(=O)NCc2ccc(CNC(=O)CCC(=O)NCc3cccc(CN)c3)cc2)cc1 [Example 35, N-(3-Aminomethylbenzylsuccinamido)-N'-(4-aminomethyl-benzylsuccinamido)-p-xylylene diamide] | 
11 | NCc1ccc(CNC(=O)CCCNC(=O)c2ccc(C(=O)NCCCC(=O)NCc3ccc(CN)cc3)cc2)cc1 [Example 15, N,N'-Bis(N-(4-aminomethylbenzyl)butyramido)terephthalamide] | 
5 | CN(Cc1ccc(CN(C)C(=O)CCC(=O)NCc2ccc(CN)cc2)cc1)C(=O)CCC(=O)NCc1ccc(CN)cc1 [Example 23] | 
608 | CN(Cc1ccc(CN(C)C(=O)CN(C)C(=O)NC[C@H]2CC[C@H](CN)CC2)cc1)C(=O)CN(C)C(=O)NC[C@H]1CC[C@H](CN)CC1 [Example 54, N,N'-Bis(methyl)-bis(sarcosine-trans-1,4-cyclohexylbis(methylamine)urea)-p-xylylene diamide] | 
8100 | N=C(N)NCc1ccc(NC(=O)CNC(=O)OCc2ccc(COC(=O)NCC(=O)Nc3ccc(CNC(=N)N)cc3)cc2)cc1 [Example 43, Bis((4-guanidomethylanilido)glycine)-1,4-benzenedimethanol dicarbamate] | 
918 | NC[C@H]1CC[C@H](C(=O)NCCCNC(=O)OCc2ccc(COC(=O)NCCCNC(=O)[C@H]3CC[C@H](CN)CC3)cc2)CC1 [Example 22, N,N'-Bis(trans-4-aminomethylcyclohexyl-1-amido-propylene)-1,4-benzenedimethanol dicarbamate] | 
6 | NCc1ccc(CNC(=O)CCC(=O)Nc2ccc(NC(=O)CCC(=O)NCc3ccc(CN)cc3)cc2)cc1 [Example 39, N,N'-Bis((N-(4-aminomethylbenzyl)succinamido))-p-phenethylenediamide] | 
3.45 | NCc1ccc(CNC(=O)CCC(=O)NCc2ccc(CNC(=O)CCC(=O)NCc3ccc(CN)cc3)cc2)cc1 [Example 8, N,N'-bis(N-(4-aminomethylbenzyl)-succinamido)-p-xylylenediamide] | early response to antigen challenge (SRL) [2]: statistically significant early and late increases in SRL; late response to antigen challenge (SRL) [2]: statistically significant early and late increases in SRL; PC400, concentration of carbachol that causes a 400% increase in SRL [4]: 15±10 breath units; onset of hyperresponsiveness [4]: block the onset of hyperresponsiveness; improvement in airway function in antigen challenged sheep [4]: statistically significant improvement in airway function
5 | NCc1ccc(C(=O)NCCCNC(=O)OCc2ccc(COC(=O)NCCCNC(=O)c3ccc(CN)cc3)cc2)cc1 [Example 19, N,N'-Bis(4-aminomethylbenzamidopropylene)-1,4-benzenedimethanol dicarbamate] | 
55 | NCc1cccc(CNC(=O)CNC(=O)OCc2ccc(COC(=O)NCC(=O)NCc3cccc(CN)c3)cc2)c1 [Example 44, Bis((3-aminomethylbenzylamido)glycine)-1,4-benzenedimethanol dicarbamate] | 
62 | NCc1ccc(CNC(=O)NCC(=O)NCc2ccc(CNC(=O)CNC(=O)NCc3ccc(CN)cc3)cc2)cc1 [Example 47, Bis(N-(4-aminomethylbenzyl)glycylurea)-p-xylylene diamide] | 
55 | NCC1CCC(CNC(=O)CCCC(=O)NCc2ccc(CNC(=O)CCCC(=O)NCC3CCC(CN)CC3)cc2)CC1 (stereo not shown) [Example 24, N,N'-Bis(N-(4-aminomethylcyclohexylmethyl)-glutaramido)-p-xylylene diamide] | 
8.8 | NCc1ccc(CNC(=O)CCCC(=O)NCc2ccc(CNC(=O)CCCC(=O)NCc3ccc(CN)cc3)cc2)cc1 [Example 10] | 
10 | NC[C@H]1CC[C@H](CNC(=O)CNC(=O)OCc2ccc(COC(=O)NCC(=O)NC[C@H]3CC[C@H](CN)CC3)cc2)CC1 [Example 45, Bis(trans-1,4-cyclohexyldimethylamine-glycine)-1,4-benzenedimethanol dicarbamate] | 
289 | C[C@H](NC(=O)OCc1ccc(COC(=O)N[C@@H](C)C(=O)NCc2ccc(NC(=N)N)cc2)cc1)C(=O)NCc1ccc(NC(=N)N)cc1 [Example 5, Bis((4-guanidylbenzyl)-L-alanineamide-N^α -carbonyl)-1,4-dimethanolbenzene] | 
31 | C[C@H](NC(=O)OCc1ccc(COC(=O)N[C@@H](C)C(=O)NCc2ccc(CN)cc2)cc1)C(=O)NCc1ccc(CN)cc1 [Example 13, Bis(p-xylylenediamine-L-alanine)-1,4-benzenedimethanol dicarbamate] | 
100 | N=C(N)Nc1ccc(CNC(=O)CCCC(=O)NCc2ccc(CNC(=O)CCCC(=O)NCc3ccc(NC(=N)N)cc3)cc2)cc1 [Example 38] | 
366 | NCC1CCC(C(=O)NCCCC(=O)NCc2ccc(CNC(=O)CCCNC(=O)C3CCC(CN)CC3)cc2)CC1 (stereo not shown) [Example 49] | 
